Results taken from publication PMC6690782 (Bioorganic & medicinal chemistry letters, 2019).

Assays:
[1] = target: LAT1 (Homo sapiens, UniProt Q01650); assay: cis-inhibition assay: inhibition of [3H]-gabapentin uptake into HEK-hLAT1 cells; assay type: cell-based; settings: for fold decrease in potency relative to corresponding histidine/tryptophan analog: cis-inhibition IC50, 7d vs 16, 13 vs 22
[2] = cited from earlier work

Chain of LAT1 (Q01650 whole entry): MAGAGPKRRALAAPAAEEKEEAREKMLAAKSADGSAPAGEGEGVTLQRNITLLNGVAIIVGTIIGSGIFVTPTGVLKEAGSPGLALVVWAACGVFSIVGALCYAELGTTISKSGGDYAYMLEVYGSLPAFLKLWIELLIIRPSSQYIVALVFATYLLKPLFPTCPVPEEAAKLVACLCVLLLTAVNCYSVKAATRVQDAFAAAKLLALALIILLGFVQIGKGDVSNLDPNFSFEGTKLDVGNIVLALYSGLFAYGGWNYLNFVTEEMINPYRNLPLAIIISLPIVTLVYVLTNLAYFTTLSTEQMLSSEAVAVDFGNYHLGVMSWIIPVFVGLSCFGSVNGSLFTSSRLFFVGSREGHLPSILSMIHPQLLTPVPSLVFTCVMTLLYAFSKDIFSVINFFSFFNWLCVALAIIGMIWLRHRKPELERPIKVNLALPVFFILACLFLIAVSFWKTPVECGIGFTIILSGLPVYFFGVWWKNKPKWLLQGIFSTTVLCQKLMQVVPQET
Chain of LAT1 (P08195 102-630 partner): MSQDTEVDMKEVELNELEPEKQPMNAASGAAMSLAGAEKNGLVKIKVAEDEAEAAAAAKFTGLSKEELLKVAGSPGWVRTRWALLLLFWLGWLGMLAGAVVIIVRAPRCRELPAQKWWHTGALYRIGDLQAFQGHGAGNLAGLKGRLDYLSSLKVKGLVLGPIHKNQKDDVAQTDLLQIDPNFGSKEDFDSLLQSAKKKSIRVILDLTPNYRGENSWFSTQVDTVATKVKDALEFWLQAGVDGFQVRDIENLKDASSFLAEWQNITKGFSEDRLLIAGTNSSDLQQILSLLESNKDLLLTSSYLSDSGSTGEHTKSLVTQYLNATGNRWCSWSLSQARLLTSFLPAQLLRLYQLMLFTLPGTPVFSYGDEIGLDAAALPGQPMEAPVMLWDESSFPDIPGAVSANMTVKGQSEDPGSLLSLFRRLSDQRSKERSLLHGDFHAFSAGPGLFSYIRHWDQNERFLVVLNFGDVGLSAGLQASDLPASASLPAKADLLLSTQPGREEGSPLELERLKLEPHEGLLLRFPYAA

N[C@@H](Cc1cn(Cc2ccccc2)nn1)C(=O)O [Compound 11e]
inhibition at 200 µM [1]: -19%

N[C@@H](Cc1cn(Cc2ccccc2)cn1)C(=O)O [Compound 17, reference compound]
inhibition at 200 µM [1]: 74%

c1c[nH]nn1 [1,2,3-triazole]
pKa of conjugate acid [2]: 1.15

Cc1cn(C[C@H](N)C(=O)O)nn1 [Compound 7d]
fold decrease in potency relative to corresponding histidine/tryptophan analog [1]: 2 fold

N[C@@H](Cn1nnc2ccccc21)C(=O)O [Compound 13]
fold decrease in potency relative to corresponding histidine/tryptophan analog [1]: 2 fold
